Results reported in patent publication US20250339409A1, “USES OF PAN BET INHIBITORS” (VYNE THERAPEUTICS INC., priority 2021, published 2025).
Several values for one entry are separate records, joined by “and”; a condition that tells them apart may be missing. Equal entries are not always repeated.

What was measured:
[1] = system: MMP-9; experiment: RHE vitiligo model: MMP-9 secretion by ELISA; format: cell-based, human; details: Rux 1.5%, 48 h
Experimental: (§1) […] Three epidermis samples per condition are fixed in 4% formaldehyde solution and embedded in paraffin for further analysis (morphology analysis, melanin and melanocytes localisation/quantification). Three other epidermis samples per condition are put in a specific lysis buffer for total RNA extraction.
(§2) At the end of the treatments, culture media is collected (from 3 epidermis per condition), aliquoted and stored at −20° C. until use in ELISA assays. The quantity of MMP-9 secreted by the epidermis at the end of the treatments is analysed using the human MMP-9 Quantikine ELISA kit (Bio-Techne; DMP900). The secretion of E-cadherin in culture media is measured using to human E-cadherin Quantikine ELISA kit (Bio-Techne; DCADE0) dedicated for the measurement of natural human E-cadherin in culture supernates, serum, plasma, urine, and saliva.
(§3) The ELISAs are performed following the instructions of the supplier. The quantities of MMP-9 and E-cadherin are determined by comparisons with standard curves performed with recombinant human MMP-9 or E-cadherin provided in the kits.
(§4) Quantification of secretion of MMP-9 and E-cadherin by ELISA from collected culture medium was conducted in accordance with Method E. The results, shown in FIG. 5A and FIG. 5B are based on Tables 23 and 24 respectively and presented in percentage of release in comparison to the stimulated control. A statistical analysis (student t-test) was performed to compare the effects of the treatments with the formulations to the vehicle (with $: 0.05>p>0.01; $$: 0.01>p>0.001; and $$$: p<0.001). The same analysis was performed to compare the effects of the vehicle and of the unstimulated control to the stimulated control (with *: 0.05>p>0.01; **: 0.01>p>0.001; and ***: p<0.001). The analysis was performed from three replicates per condition (n=3). The mean of the three values and the standard deviation are presented on the histograms in FIG. 5A and FIG. 5B. As shown in Table 21 and FIG. 5A and consistent with the results of Part A, MMP-9 secretion was increased following the stimulation with the cytokines, which validates the assay.

[2] = system: E-cadherin; experiment: RHE vitiligo model: E-cadherin secretion by ELISA; format: cell-based, human; details: Rux 1.5%, 48 h
Experimental: as §1, §2, §3, §4

[3] = system: IL4, IL13, IL31, CCL17, CCL26, CCL2 gene expression in Th2 stimulated human skin; experiment: Th2 stimulated human skin explants, RT-qPCR of biomarkers; format: cell-based; details: calculated to Th2 stimulated control
Text: (§5) Human skin biopsy tissue was stimulated to induce a Th17 immuno-phenotype using a method derived from Feghali-Bostwick et al. Induction of a Th17 phenotype in human skin—a mimic of dermal inflammatory diseases, Methods and Protocols, 2, 45 (2019). The pharmacodynamic assay described therein involves a similar paradigm to elicit a Th2 response and is used to evaluate the therapeutic potential of the active compounds (e.g., BETi1; and
(§6) Freshly excised healthy human skin tissue from abdominoplasties is defatted, cleaned and sectioned into 7 mm biopsies. The biopsies are placed in Transwell® inserts with the epidermis apical and exposed to air and the dermis submerged in media in the basal chamber. The biopsies are pre-treated overnight at 37° C., 5% CO2 with different compounds and controls added to the media in the basal chamber.
(§7) The next day, contents of the basal chamber is replaced with fresh media containing the test compound (listed below) and a stimulation cocktail for either Th2 inflammation (proprietary of service provider cocktail) or Th17 inflammation (mix of antibodies against CD3, CD28, IL-4, IFNγ and recombinant IL-1β, IL-6, IL-21, TGF-β). The biopsies are incubated at 37° C., 5% CO2 for a further 24 hrs.
(§8) A list of all the treatments is provided below: • 1. Untreated control (for both stimulations) • 2. Th2 stimulated control • 3. Th17 stimulated control • 4. Th2+BETia at 0.01, 0.04, 0.16, 0.63, 2.50, and 10 μM • 5. Th2+BETi1 at 0.01, 0.04, 0.16, 0.63, 2.50, and 10 μM • 6. Th2+Ruxolitinib at 0.01, 0.04, 0.16, 0.63, 2.50, and 10 μM • 7. Th2+betamethasone valerate 210 μM (equivalent to 0.01%) • 8. Th17+BETia at 10 μM • 9. Th17+BETi1 at 10 μM • 10. Th17+Ruxolitinib at 10 μM • 11. Th17+betamethasone valerate 210 μM (equivalent to 0.01%)
(§9) After harvesting, the biopsies are cut in half, and one half is homogenized and used for RNA extraction by standard methods and inflammatory pathways is assessed by RT-qPCR. The ability of BETi1 or BETia to inhibit the activity of up to six biomarkers per stimulation is reported as percent activity calculated to stimulated control and fold change in gene expression calculated to untreated control with respect to Th2 (IL4, IL13, IL31, CCL17, CCL26, CCL2) and Th17 (CXCL10, IL17α, IL22, IL36γ, CCL20, SerpinB4). Statistical analysis is performed on data sets from all 3 donors combined and compares the percent inhibition of each biomarker by each treatment calculated to its respective vehicle.
(§10) qPCR values were calculated using the relative quantification approach outlined by Livak, et al (2001) (Section 9, Reference 2). The Ct values (threshold cycle) defined as the fractional cycle number at which the amount of amplified target reaches a fixed threshold, were normalised to the Ct value of an internal biomarker or ‘housekeeping gene’ (GAPDH). The higher limit of detection was set at a Ct value of 40, and any target having not reached Ct by 40 cycles was set to this value. The delta Ct values (dt(Ct)) refers to the Ct of the gene of interest minus the Ct of the internal biomarker. The ddt(Ct) is the dt(Ct) value of the gene minus the average dt(Ct) value of the untreated samples. The ddt(Ct) is converted to power by the equation; =power(2,dt(Ct)). Fold change was calculated as ratio of the power of the gene of interest divided by the average power of the untreated samples. This normalizes the untreated samplers to a value of 1. For the comparison of multiple skin donors, the stimulated samples were normalized to 100% maximum activity (such to normalize variability between different skin donors). Percent activity was calculated as the percent increase or decrease in stimulation compared to the stimulated samples set at 100% maximum activity. Percent change was calculated as: Inhibition=(100−(avg % activity/stimulated)*100). Statistical analysis was performed using One-way ANOVA with Dunnett's Multiple Comparisons (non parametric). […]

[4] = system: CXCL10, IL17α, IL22, IL36γ, CCL20, SerpinB4 gene expression in Th17 stimulated human skin; experiment: Th17 stimulated human skin explants, RT-qPCR of biomarkers; format: cell-based; details: calculated to Th17 stimulated control, three skin donors
Text: as §5, §6, §7, §8, §9, §10

[5] = system: anti collagen antibodies induced arthritis (ACAIA); experiment: ACAIA mice: hot plate withdrawal latency; format: in vivo, Balb/c mice
Experimental: On days 0, 5 and 11 animals are placed on hot plate apparatus (53±1° C.) and the time until the first response is observed and recorded.

[6] = TNF-α/IFN-γ stimulated RHE, replicates N1-N3
[7] = culture medium of RHE, TNF-α 12 ng/ml/IFN-γ 12 ng/ml
[8] = culture medium of RHE, TNF-α 12 ng/ml/IFN-γ 12 ng/ml, replicates N1-N3

SMILES: N#CC[C@H](C1CCCC1)n1cc(-c2ncnc3[nH]ccc23)cn1 [Rux]
- MMP-9 (% stimulated ctl) Mean ([1]; TNF-α/IFN-γ stimulated RHE): 11%
- MMP-9 (% stimulated ctl) [1, 6]: 2% and 28% and 4%
- Mean conc MMP-9 [1, 7]: 2.0 ng/mL
- Conc MMP-9 [1, 8]: 0.4 ng/mL and 4.9 ng/mL and 0.7 ng/mL
- E-Cad (% stimulated ctl) Mean ([2]; TNF-α/IFN-γ stimulated RHE): 160%
- E-Cad (% stimulated ctl) [2, 6]: 77% and 247% and 155%
- Mean conc E-Cad [2, 7]: 3.7 ng/mL
- Conc E-Cad [2, 8]: 1.8 ng/mL and 5.7 ng/mL and 3.6 ng/mL

SMILES: CCCCC(=O)O[C@]1(C(=O)CO)[C@@H](C)C[C@H]2[C@@H]3CCC4=CC(=O)C=C[C@]4(C)[C@@]3(F)[C@@H](O)C[C@@]21C [Betamethasone, betamethasone valerate, reference compound]
- % Inhibition IL31 ([3]; 10 μM): 87.4%
- % Inhibition CCL26 ([3]; 210 μM): 64.4%
- % inhibition IL13 ([3]; 210 μM): 97.8%
- % inhibition CCL20 ([4]; 10 μM): N/I (N/I indicates no inhibition.)
- % inhibition IL17α ([4]; 210 μM): 73.1%
- % inhibition IL36γ ([4]; 210 μM): 77.7%

SMILES: C[C@@H]1C[C@H]2[C@@H]3CCC4=CC(=O)C=C[C@]4(C)[C@@]3(F)[C@@H](O)C[C@]2(C)[C@@]1(O)C(=O)CO [Dex]
- Hot Plate Change in withdrawal latency (Avg.) ([5]; 1 mg/kg IA, Baseline): 11.71 s
- Hot Plate Change in withdrawal latency (Avg.) ([5]; 1 mg/kg IA, Day 5): 10.14 s
- Hot Plate Change in withdrawal latency (Avg.) ([5]; 1 mg/kg IA, Day 11): 12.86 s
- Hot Plate Change in withdrawal latency (Avg.) ([5]; 1 mg/kg IP, Baseline): 11.86 s
- Hot Plate Change in withdrawal latency (Avg.) ([5]; 1 mg/kg IP, Day 5): 12.43 s
- Hot Plate Change in withdrawal latency (Avg.) ([5]; 1 mg/kg IP, Day 11): 12.29 s
